In the assay the test system is enteritis induced by trinitrobenzene sulfonic acid (TNBS). Put plainly: Improvement of bowel swelling and mushy or watery feces in TNBS-induced enteritis. It is filed as in vivo. The settings on record: TNBS-induced enteritis mice, oral; extracts 100 mg/kg (B. krylovianum also 1000 mg/kg), 5-ASA 200 mg/kg; 6 cm bowel from the anus observed. An excerpt: The animal model of enteritis for test is from an induction by trinitrobenzene sulfonic acid (TNBS) (Current Protocols in Immunology (2001) 15.19.1-15.19.14; Lahat G, Halperin D, Fabian I, et al. Immunomodulatory Effects of Ciprofloxacin in TNBS-Induced Colitis in Mice. Inflamm Bowel Dis 2007;13:557-565; ten Hove T, van den Blink B, Pronk I, et al. Dichotomal role of inhibition of p38 MAPK with SB 203580 in experimental colitis. Gut 2002; 50:507-512; and Bouma G, Strober W. The Immunological and Genetic Basis of Inflammatory Bowel Disease. Nature Review Immunology 2003; 3: 521-533). The bowel in the animal model of enteritis has swelled and the feces therein show a mushy or watery appearance instead of a normal semi-solid type appearance.
Specifically, BABL/cAnNCrlBltw mice, purchased from BioLASCO Taiwan (Bltw) were grouped into four groups having 6 mice to a group. In three of the groups, each mouse was injected with 1.75 mg of trinitrobenzene sulfonic acid (TNBS) (Sigma) at a 4 cm depth of the bowel from the anus. After 48 hours, the injected location was induced to form enteritis. Mice in another group were injected with a 50% ethanol aqueous solution without TNBS at a 4 cm depth of the bowel from the anus as a negative control (A). The location injected ethanol aqueous solution without TNBS was not induced to form enteritis. […]

In the case of `Nc1ccc(O)c(C(=O)O)c1` [5-ASA, 5-aminosalicylic acid], the bowel swelling entry is “not alleviated or eliminated”.

Source of the values: patent US9060989B2, “Method for treating or relieving inflammatory bowel disease” (INDUSTRIAL TECHNOLOGY RESEARCH INSTITUTE, priority 2010, dated 2015).
